Measured values from ChEMBL document CHEMBL1128861 (Bioorg Med Chem Lett, 1995).

Tests used:
[1] = target: Serotonin 3 (5-HT3) receptor (Homo sapiens) (UniProt P46098+A5X5Y0+O95264+Q70Z44+Q8WXA8); assay: Binding affinity against 5-hydroxytryptamine 3 receptor of guinea pig ileum; type: tissue-based; conditions: Cavia porcellus, target entry is the homologue from another species
[2] = target: Adrenergic receptor alpha-1 (Rattus norvegicus) (UniProt P15823+P23944+P43140); assay: Affinity for Alpha-1 adrenergic receptor of rat aorta; type: tissue-based
[3] = target: Histamine H1 receptor (Cavia porcellus) (UniProt P31389); assay: Affinity for H1 histamine receptor of guinea pig ileum; type: tissue-based
Chain of Histamine H1 receptor (Cavia porcellus) (P31389 whole entry): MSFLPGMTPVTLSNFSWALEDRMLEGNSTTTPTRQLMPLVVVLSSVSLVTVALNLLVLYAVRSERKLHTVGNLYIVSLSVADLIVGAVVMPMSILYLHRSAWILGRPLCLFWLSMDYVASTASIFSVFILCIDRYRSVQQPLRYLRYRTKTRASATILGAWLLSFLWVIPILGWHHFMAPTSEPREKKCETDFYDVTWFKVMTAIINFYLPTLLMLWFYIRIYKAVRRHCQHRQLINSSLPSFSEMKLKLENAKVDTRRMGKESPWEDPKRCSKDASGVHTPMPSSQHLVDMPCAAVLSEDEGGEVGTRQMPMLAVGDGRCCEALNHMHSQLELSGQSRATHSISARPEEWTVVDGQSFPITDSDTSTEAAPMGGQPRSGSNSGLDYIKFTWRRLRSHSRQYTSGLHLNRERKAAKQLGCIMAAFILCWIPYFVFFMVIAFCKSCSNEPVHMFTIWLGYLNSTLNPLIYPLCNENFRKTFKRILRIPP

[4] = target: Muscarinic acetylcholine receptor M3 (Cavia porcellus) (UniProt Q8VH26); assay: Affinity for ileal muscarinic M3 receptor of guinea pig ileum; type: tissue-based
Chain of Muscarinic acetylcholine receptor M3 (Cavia porcellus) (Q8VH26 1-587): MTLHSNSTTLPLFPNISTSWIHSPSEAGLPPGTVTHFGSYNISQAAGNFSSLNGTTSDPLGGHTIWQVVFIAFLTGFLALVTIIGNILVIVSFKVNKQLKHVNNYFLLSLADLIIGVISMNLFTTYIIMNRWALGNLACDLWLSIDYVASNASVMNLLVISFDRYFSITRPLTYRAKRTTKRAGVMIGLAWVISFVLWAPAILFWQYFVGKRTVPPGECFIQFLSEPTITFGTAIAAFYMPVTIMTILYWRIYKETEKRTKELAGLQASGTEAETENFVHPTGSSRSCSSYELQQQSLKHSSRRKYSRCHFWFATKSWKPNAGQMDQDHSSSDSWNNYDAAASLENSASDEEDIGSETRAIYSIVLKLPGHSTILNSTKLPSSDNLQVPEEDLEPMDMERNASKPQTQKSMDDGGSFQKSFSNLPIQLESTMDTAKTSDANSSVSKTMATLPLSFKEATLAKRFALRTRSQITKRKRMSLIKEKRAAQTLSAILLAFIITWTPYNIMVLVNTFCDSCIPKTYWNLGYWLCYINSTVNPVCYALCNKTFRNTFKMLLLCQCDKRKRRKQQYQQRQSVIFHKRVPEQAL

[5] = target: T1, Adrenergic receptor alpha-1 (Rattus norvegicus, UniProt P15823+P23944+P43140); assay: Antagonism against Alpha-1 adrenergic receptor of rat aorta; type: functional, tissue-based
T1 sequence (P15823 whole entry): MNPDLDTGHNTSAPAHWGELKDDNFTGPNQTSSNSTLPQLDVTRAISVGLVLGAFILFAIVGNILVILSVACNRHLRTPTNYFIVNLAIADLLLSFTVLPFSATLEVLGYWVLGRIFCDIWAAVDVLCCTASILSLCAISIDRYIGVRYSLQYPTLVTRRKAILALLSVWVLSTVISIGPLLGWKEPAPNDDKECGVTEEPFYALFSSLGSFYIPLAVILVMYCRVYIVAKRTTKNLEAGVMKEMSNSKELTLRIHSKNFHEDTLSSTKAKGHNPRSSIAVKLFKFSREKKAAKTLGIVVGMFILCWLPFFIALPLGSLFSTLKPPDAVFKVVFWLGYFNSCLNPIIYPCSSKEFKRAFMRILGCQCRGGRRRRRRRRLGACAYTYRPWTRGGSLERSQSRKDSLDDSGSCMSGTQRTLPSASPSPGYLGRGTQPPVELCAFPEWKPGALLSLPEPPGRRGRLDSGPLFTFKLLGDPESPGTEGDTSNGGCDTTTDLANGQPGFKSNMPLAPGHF
T1 sequence (P23944 whole entry): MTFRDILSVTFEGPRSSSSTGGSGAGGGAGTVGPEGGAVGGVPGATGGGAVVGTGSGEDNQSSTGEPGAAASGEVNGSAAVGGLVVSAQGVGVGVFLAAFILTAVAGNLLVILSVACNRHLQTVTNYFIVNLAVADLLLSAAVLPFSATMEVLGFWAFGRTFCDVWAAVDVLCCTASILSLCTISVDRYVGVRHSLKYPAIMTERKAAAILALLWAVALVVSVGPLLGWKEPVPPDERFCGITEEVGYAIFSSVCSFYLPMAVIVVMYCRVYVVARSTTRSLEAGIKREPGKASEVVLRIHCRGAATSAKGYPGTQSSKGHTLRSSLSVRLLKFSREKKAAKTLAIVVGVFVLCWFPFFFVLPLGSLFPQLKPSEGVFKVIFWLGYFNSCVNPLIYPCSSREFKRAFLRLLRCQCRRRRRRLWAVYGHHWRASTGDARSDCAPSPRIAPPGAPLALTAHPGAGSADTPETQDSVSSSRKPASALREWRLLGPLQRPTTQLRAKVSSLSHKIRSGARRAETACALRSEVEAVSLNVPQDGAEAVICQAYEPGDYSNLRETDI
T1 sequence (P43140 whole entry): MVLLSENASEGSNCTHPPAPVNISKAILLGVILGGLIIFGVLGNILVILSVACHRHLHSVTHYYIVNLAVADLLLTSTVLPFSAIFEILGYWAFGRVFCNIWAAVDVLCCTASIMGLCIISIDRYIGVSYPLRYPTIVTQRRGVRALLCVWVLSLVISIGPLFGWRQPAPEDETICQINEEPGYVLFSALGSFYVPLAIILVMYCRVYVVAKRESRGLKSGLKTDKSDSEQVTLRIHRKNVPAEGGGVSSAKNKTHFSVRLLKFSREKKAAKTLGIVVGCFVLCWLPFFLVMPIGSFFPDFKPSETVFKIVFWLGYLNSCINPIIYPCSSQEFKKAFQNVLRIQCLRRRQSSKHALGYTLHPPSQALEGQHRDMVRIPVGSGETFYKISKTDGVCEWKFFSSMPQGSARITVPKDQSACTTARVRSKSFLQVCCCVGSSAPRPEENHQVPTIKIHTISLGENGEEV

[6] = target: Histamine H1 receptor (Cavia porcellus, UniProt P31389); assay: Antagonism against H1 histamine receptor of guinea pig ileum; type: functional, tissue-based; conditions: read-out: pA2 (converted)
Chain of Histamine H1 receptor (P31389 whole entry): as the sequence (P31389 whole entry) above

[7] = target: 5-hydroxytryptamine receptor 2A (Rattus norvegicus) (UniProt P14842); assay: Affinity for 5-HT2A receptor of rat tail artery; type: tissue-based
Chain of 5-hydroxytryptamine receptor 2A (Rattus norvegicus) (P14842 whole entry): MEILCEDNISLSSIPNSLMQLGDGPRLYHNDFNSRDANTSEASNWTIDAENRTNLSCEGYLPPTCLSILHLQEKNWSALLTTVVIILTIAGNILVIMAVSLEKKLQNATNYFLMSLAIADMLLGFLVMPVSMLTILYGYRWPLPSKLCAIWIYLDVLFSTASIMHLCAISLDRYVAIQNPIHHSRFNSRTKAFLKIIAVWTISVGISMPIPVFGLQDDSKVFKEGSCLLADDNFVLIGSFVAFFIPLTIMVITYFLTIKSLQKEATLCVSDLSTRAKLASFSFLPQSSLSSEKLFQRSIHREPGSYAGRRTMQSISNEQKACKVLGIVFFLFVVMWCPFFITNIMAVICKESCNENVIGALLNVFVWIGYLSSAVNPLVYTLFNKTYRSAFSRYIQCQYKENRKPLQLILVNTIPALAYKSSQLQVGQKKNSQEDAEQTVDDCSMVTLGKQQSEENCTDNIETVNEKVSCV

[8] = target: T2, 5-hydroxytryptamine receptor 2A (Rattus norvegicus, UniProt P14842); assay: Antagonism of 5-HT2A receptor of rat tail artery; type: functional, tissue-based; conditions: read-out: pA2 (converted)
T2 sequence (P14842 whole entry): as above

[9] = target: 5-hydroxytryptamine receptor 2A (Rattus norvegicus) (UniProt P14842); assay: Binding affinity against 5-HT2A receptor of rat tail artery; type: tissue-based
[10] = target: Muscarinic acetylcholine receptor M3 (Cavia porcellus) (UniProt Q8VH26); assay: Binding affinity against ileal muscarinic M3 receptor of guinea pig ileum; type: tissue-based
[11] = target: T2, 5-hydroxytryptamine receptor 2A; assay: Binding affinity towards 5-HT2A receptor of rat tail artery; type: tissue-based

SMILES	pKB [1]	pKB [2]	pKB [3]	pKB [4]	pKB [7]	Kb [8] [nM]	other results
Cn1c2c(c3ccccc31)C(=O)C(CN1CCC(C(=O)c3ccc(F)cc3)CC1)CC2 (racemic) [listing 1 of 2 here]	< 5.7	7.96	6.92	5.19	–	–	–
Cn1c2c(c3ccccc31)C(=O)C(CN1CCC(C(=O)c3ccc(F)cc3)CC1)CC2 (single isomer, unassigned; (+)) [listing 1 of 2 here]	–	7.28	6.82	–	–	–	–
O=C(c1ccc(F)cc1)C1CCN(CCn2c(=O)[nH]c3ccccc3c2=O)CC1 [KETANSERIN]	–	–	–	4.18	–	–	pA2 [5]: 8.09; Kb [6]: 1.41 nM
Cn1c2c(c3ccccc31)C(=O)C(CN1CCC(C(=O)c3ccc(F)cc3)CC1)CC2 (stereo in doubt; (-)-13) [listing 1 of 2 here]	–	8.08	6.74	–	–	–	–
Cn1c2c(c3ccccc31)C(=O)C(CN1CCC(c3ccccc3)CC1)CC2 (configuration not stated)	< 5.2	7.58	6.4	4.97	8.43	–	–
COc1ccc2[nH]cc(C3=CCN(CC4CCc5c(c6ccccc6n5C)C4=O)CC3)c2c1 (configuration not stated)	–	6.59	6.31	–	6.09	–	–
Cn1c2c(c3ccccc31)C(=O)C(CNCc1ncc[nH]1)CC2 (configuration not stated)	–	–	–	–	6.59	–	–
Cn1c2c(c3ccccc31)C(=O)C(CN1CCN(c3ccc(F)cc3)CC1)CC2 (configuration not stated)	< 5.5	7.8	6.74	5.55	–	2.51	–
Cn1c2c(c3ccccc31)C(=O)C(CN1CCC(C(=O)c3ccc(F)cc3)CC1)CC2 (single isomer, unassigned; (+)) [listing 2 of 2 here]	–	–	–	–	–	64.6	–
CN(CCn1c(=O)[nH]c2ccccc2c1=O)CC1CCc2c(c3ccccc3n2C)C1=O (configuration not stated)	< 5.7	6.45	5.9	4.68	5.5	–	–
Cn1c2c(c3ccccc31)C(=O)C(CNc1ncc[nH]1)CC2 (configuration not stated)	–	–	–	–	6.73	–	–
Cn1c2c(c3ccccc31)C(=O)C(CN1CCN(c3ccccc3F)CC1)CC2 (configuration not stated)	< 5.2	–	6.19	4.72	7.8	–	pA2 [5]: 8.75
Cn1c2c(c3ccccc31)C(=O)C(CN1CC=C(c3c[nH]c4ccc(F)cc34)CC1)CC2 (configuration not stated)	–	6.49	6.6	–	7.22	–	–
Cn1c2c(c3ccccc31)C(=O)C(CN1CCC(=C(c3ccc(F)cc3)c3ccc(F)cc3)CC1)CC2 (configuration not stated)	–	5.81	7.41	5.7	6.3	–	pD2 [1]: 6.08
Cn1c2c(c3ccccc31)C(=O)C(CNCCc1c[nH]cn1)CC2 (configuration not stated)	–	–	–	–	6.75	–	–
Cn1c2c(c3ccccc31)C(=O)C(CN1CCC(C(=O)c3ccccc3)CC1)CC2 (configuration not stated)	< 5.5	7.36	6.53	5.01	–	4.57	–
Cc1nccn1CC1CCc2c(c3ccccc3n2C)C1=O (configuration not stated)	–	5.29	4.37	–	–	–	pKB [9]: 4.66; pKB [10]: 4.72
Cn1c2c(c3ccccc31)C(=O)C(CN1CC=C(c3c[nH]c4ccccc34)CC1)CC2 (configuration not stated)	–	7.58	6.62	–	–	6.31	–
Cn1c2c(c3ccccc31)C(=O)C(CN1CCC(C(=O)c3ccc(F)cc3)CC1)CC2 (stereo in doubt; (-)-13) [listing 2 of 2 here]	–	–	–	–	–	0.437	–
Cn1c2c(c3ccccc31)C(=O)C(CN1CCC(C(=O)c3ccc(F)cc3)CC1)CC2 (racemic) [listing 2 of 2 here]	–	–	–	–	–	0.617	–
O=C(c1ccc(F)cc1)C1CCNCC1	–	–	–	–	–	525	Ki [11]: 398 nM
Cn1c2c(c3ccccc31)C(=O)C(CN1CCCCC1)CC2 (configuration not stated)	< 5.3	6.11	5.69	4.98	5.98	–	–
